Measurements as given in US10206894B2, “Compounds for use in treatment of mucositis” (priority 2011, dated 2019).

How the values were obtained:
[1] = test system: radiation-induced oral mucositis, left buccal cheek pouch; conditions: Acute Radiation; published results in nearly identical models; cited from earlier work
[2] = test system: fractionated radiation and cisplatin induced oral mucositis, left buccal cheek pouch; conditions: published results in nearly identical models; cited from earlier work
[3] = test system: FaDu human head and neck cancer xenograft; assay: Tumor growth and response to therapy in FaDu xenograft; type: in vivo, nude mice (nu/nu)
Procedure: Ninety (90) male nude mice (nu/nu) were divided into nine (9) groups of ten […]) mice per group. To ensure that a sufficient number of tumor-bearing animals were available for this study, a total of 100 mice were inoculated s.c. in the flank with 1×10^6 FaDu cells. FaDu (HTB-43) human head and neck cancer cells were obtained from ATCC. These cells were grown in EMEM medium supplemented with 10% Fetal Calf Serum (FCS), 1% penicillin and streptomycin, and 2 mM L-Glutamine. […] The flask was incubated at 37° C. until cells detached. Cells were then sub-cultured at a ratio of 1:3. […] Tumors were measured once every two days with micro-calipers, and tumor volume was calculated as (length×width×width)/2. Where animals were euthanized for tumor volume exceeding the maximum permissible by IACUC rules (1500 mm^3) or tumor ulceration, the last measurement was carried forward in calculations of mean tumor volume.
All animals were weighed every day and their survival recorded, to assess possible differences in animal weight among treatment groups as an indication of possible toxicity resulting from the treatments. […] Any animals whose tumor grew to over 1500 mm^3 were also euthanized.
Further analysis of the tumor volume data was performed by calculating the mean area under the curve (AUC) for the tumor volume for each animal and comparing the groups using an ANOVA on ranks test. Due to the impact of animals euthanized for tumor ulceration or volume in excess of 1500 mm^3, this analysis was performed on data to Day 15 as well as on the full data set to Day 29.

[4] = groups receiving cisplatin chemotherapy 5 mg/kg (with vehicle or Compound X)

Row | SMILES | % reduction of animal days with OM scores ≥ 3 [1] | % reduction of animal days with OM scores ≥ 3 [2] [%] | mean weight gain ([3]; cisplatin 5 mg/kg plus vehicle, by Day 15) [%] | average gain of starting weight ([3]; cisplatin 5 mg/kg plus vehicle, by the end of the study) [%] | p, tumor volume AUC to Day 15 vs vehicle control group (ANOVA on ranks) ([3]; cisplatin plus vehicle) | mean tumor volume ([3]; cisplatin plus vehicle, Day 1) [mm^3] | mean tumor volume ([3]; cisplatin plus vehicle, Day 15) [mm^3] | mean tumor volume ([3]; cisplatin plus vehicle, end of the study) [mm^3] | animals euthanized for tumor size [3, 4] [%] | animals euthanized for tumor ulceration [3, 4] [%] | animals survived [3, 4] [%]
1 | N[C@H](CCC(=O)N[C@@H](Cc1c[nH]c2ccccc12)C(=O)O)C(=O)O [SCV-07] | 68.3%-77.6% | 33.3 |  |  |  |  |  |  |  |  | 
2 | N.N.[Cl][Pt][Cl] [cisplatin, reference compound] |  |  | 7.2 | 13.0 | 0.011 | 100 | 652 | 302 | 23 | 26.7 | 50
